In US6979664B1, “Composition for accelerating seed germination and plant growth” (Bios Agriculture Inc., priority 1998, dated 2005):
“And” between values parts separate entries of the source, which are not always exact repeats. Equal entries are not always repeated.

Tests used:
Assay type in all cases: in vivo
potato microtubers [1] = experiment: sprouting of microtubers cold-stored 3 weeks, dormancy-breaking agents incl. anti-ABA; conditions: evaluated at 2 weeks
Description: Microtubers (200–600 mg) were cold-stored for 3 wk prior to the experiment. Seven microtubers were used per treatment. Treatments included 24 h soaks in anti-ABA or GA3 (500 and 250 mg l^−1, respectively) applied alone or in combination, GA3 (500 mg l^−1 in combination with 100% signal solution, and water. Bromoethane (0.2 ml l^−1) and control treatments were also performed. Observations were made after 2 wk in the dark at room temperature (20° C.). Data included number of sprouted microtubers and number of multiple sprouts. Means of sprout number were calculated only from microtubers that had sprouted.

potato microtubers [2] = experiment: sprouting and multiple sprouting of microtubers cold-stored 8 wk; conditions: Microtuber (CS8W); for Sprouting (number of sprouted tubers): GA3 500 mg l^−1 / 100% signal solution / Bromoethane 0.2 ml l^−1
Description: (§1) Microtubers (200–500 mg) cold-stored for 8 wk and minitubers (20–35 g) cold-stored for 0, 2, or 8 wk were used for these experiments. BE (0.2 ml l^−1) and mechanical injury (cutting in half, microwaving at full power for 10 sec) were compared with GA3 (500 mgl^−1), 100% signal solution, water soaking, and control treatments. Six microtubers or minitubers were used per treatment. Observations were made at 1, 2, 3, and 4 wk intervals and the number of sprouted tubers were counted. The evaluation period was extended because tubers with little or no cold storage treatment took longer to sprout.

potato minitubers [3] = experiment: GA3 and 100% signal solution, dormancy breaking of minitubers cold-stored 3 weeks
Description: Minitubers (20–30 g) with 3 wk cold storage treatment were soaked for 24 h in 500 mg l^−1 GA3, 100% signal solution, or a mixture of the two. Another treatment involved successive soaking for 12 h each, in first GA3, and then signal solution. A control treatment without soaking was also performed. Eight minitubers were used per treatment which were applied at room temperature (20° C.). […] were observed after 2 wk and the number of sprouted minitubers and the number with multiple sprouts were counted.

potato microtubers [4] = experiment: dormancy breaking of potato microtubers cold-stored 8 wk; conditions: GA3 500 mgl^−1
Description: Treatments were carried out on microtubers (200–400 mg) that had been cold-stored for 8 wk to determine their effect on breaking dormancy. Signal solution was used at full strength (100%) or diluted to 20% (as for soybean), 12%, or 6% of full strength. GA3 (500 mg l^−1), water soaking, and control treatments were performed for comparison purposes. Microtuber soaking treatments lasted 24 h and then incubation occurred either in the light (40 μmol m^−2s^−1 cool-white fluorescent) or in the dark. Five microtubers were used in each treatment. Observations for sprouted microtubers were made at 1 and 2 wk.
One hundred % signal solution was as effective as GA3 (500 mg l^−1) when evaluated after 1 wk with respect to the number of sprouted microtubers. […] One hundred % signal solution induced multiple sprouts and dark incubation favoured sprouting as compared with the light regime after 1 wk of incubation. The exact cause of dark incubation favouring 100% signal solution is not understood.

potato minitubers [5] = experiment: sprouting and multiple sprouting of minitubers cold-stored 0, 2 or 8 wk; conditions: for Sprouting (number of sprouted tubers): GA3 500 mg l^−1 / 100% signal solution / Bromoethane 0.2 ml l^−1; for number of tubers with multiple sprouts: six tubers per treatment, doses as title
Description: as §1

potato minitubers [6] = experiment: harvests after 60 d from minitubers forced to break dormancy (greenhouse pots); conditions: GA3 500 mg l^−1 / 100% signal solution / BE 0.2 m l^−1; for Mean number of tubers produced per replicate / Mean fresh weight: harvest after 60 d; for Mean number sprouts at planting ± SE: minitubers cold-stored 8 wk, 3 wk after treatment; for Mean fresh weight: tubers per replicate (pot)
Description: Minitubers (20–35 g) that were cold-stored for 8 wk were given dormancy-releasing treatments including 24 h soaking in GA3 (500 mg l^−1), 100% signal solution, or water. Other treatments included BE (0.2 m l^−1), cutting in half, and the control. […] Five minitubers per treatment were individually planted into 11×12 cm plastic pots in the greenhouse. The potting mixture was 2:1 peat:perlite without fertilizer added. The pots were arranged in a complete randomized design and watered equally every alternate day. Harvest occurred after 60 d and tuber yields (number and fresh weight) were recorded.

[7] = test system: alfalfa (Medicago sativa); experiment: germination of alfalfa seeds (petri plate); conditions: after 24 h of treatment
Description: Following the methods described above, the LCO most abundantly produced by R. meliloti (Nod Rm-V(C16:2, S)) was isolated and tested on alfalfa (Medicago sativa) seeds. Briefly, 10 seeds were placed in a disk of filter paper on a petri plate. The filter paper was wetted with 5 ml of the appropriate LCO solution. Data were taken at 12 hour intervals upon the radicle (an embryonic root). The number of seed with an emerged radicle were counted. Each treatment was repeated four times. The data presented in table 9 indicate a clear acceleration of growth. In this case no standard for HPLC calibration was available, so a relative dilution series was used. […] In each case, a stimulation of seed germination was observed. Of note, Rhizobium leguminosarum produces a large number of LCOs.

[8] = single agent 24 h soak (GA3 500 mgl^−1 or 100% SS), after 2 wk

| Structure (SMILES) | Sprouting (number of sprouted tubers) (potato microtubers [2]; 1 wk) | Sprouting (number of sprouted tubers) (potato microtubers [2]; 2 wk) | Sprouting (number of sprouted tubers) (potato microtubers [2]; 3 wk) | Sprouting (number of sprouted tubers) (potato microtubers [2]; 4 wk) | Sprouting (number of sprouted tubers) (potato minitubers [5]; Minituber (CS2W), 1 wk) | Sprouting (number of sprouted tubers) (potato minitubers [5]; Minituber (CS2W), 2 wk) | Sprouting (number of sprouted tubers) (potato minitubers [5]; Minituber (CS2W), 3 wk) | Sprouting (number of sprouted tubers) (potato minitubers [5]; Minituber (CS2W), 4 wk) | Sprouting (number of sprouted tubers) (potato minitubers [5]; Minituber (CS8W), 1 wk) | Sprouting (number of sprouted tubers) (potato minitubers [5]; Minituber (CS8W), 2 wk) | Sprouting (number of sprouted tubers) (potato minitubers [5]; Minituber (CS8W), 3 wk) | number of tubers with multiple sprouts (potato minitubers [5]; Minituber (CS8W), 3 wk) | Sprouting (number of sprouted tubers) (potato minitubers [5]; Minituber (CS8W), 4 wk) | number of tubers with multiple sprouts (potato minitubers [5]; Minituber (CS8W), 4 wk) | Sprouting (number of sprouted tubers) (potato minitubers [5]; Minituber (NCS), 1 wk) | Sprouting (number of sprouted tubers) (potato minitubers [5]; Minituber (NCS), 2 wk) | Sprouting (number of sprouted tubers) (potato minitubers [5]; Minituber (NCS), 3 wk) | Sprouting (number of sprouted tubers) (potato minitubers [5]; Minituber (NCS), 4 wk) | Mean number of tubers produced per replicate (potato minitubers [6]) | Mean number sprouts at planting ± SE (potato minitubers [6]) | also measured |
| --- | --- | --- | --- | --- | --- | --- | --- | --- | --- | --- | --- | --- | --- | --- | --- | --- | --- | --- | --- | --- | --- |
| C=C1C[C@]23C[C@@]1(O)CC[C@H]2[C@@]12C=C[C@H](O)[C@@](C)(C(=O)O1)[C@H]2[C@@H]3C(=O)O [GA3, gibberellic acid] | 4/6 | 5/6 | 6/6 | 6/6 | 0 | 0/6 and 0 | 3/6 | 5/6 | 5/6 | 6/6 | 6/6 | (6) | 6/6 | (6) | 0 | 0/6 and 0 | 3/6 | 4/6 | 3.6 | 4.2±0.37 | Mean No. sprouts ± SE (potato microtubers [1]; GA3 500 mgl^−1 24 h): 1.71±0.28; No. sprouted microtubers (potato microtubers [1]; GA3 500 mgl^−1 24 h): 7/7; number of tubers with multiple sprouts (potato microtubers [2]; 3 wk, six tubers per treatment, doses as title): (3); sprouting (potato minitubers [3]; 24 h soak, GA3 500 mg l^−1 alone or together with 100% signal solution, 2 wk): 100%; Mean number of sprouts ± SE (potato minitubers [3]; [8]): 3.37 ± 0.62; Number of minituber with multiple sprouts (potato minitubers [3]; [8]): 6/8; Number of sprouted minituber (potato minitubers [3]; [8]): 8/8; Mean number of sprouts ± SE (potato microtubers [4]; + light): 2.5 ± 0.5; Number of multiple sprouted microtubers (2 wk) (potato microtubers [4]; + light): 2/5; Number of sprouted microtubers (potato microtubers [4]; + light, 1 wk): 1/5; Number of sprouted microtubers (potato microtubers [4]; + light, 2 wk): 5/5; Mean number of sprouts ± SE (potato microtubers [4]; − light): 2.5 ± 0.3; Number of multiple sprouted microtubers (2 wk) (potato microtubers [4]; − light): 4/5; Number of sprouted microtubers (potato microtubers [4]; − light, 1 wk): 5/5; Number of sprouted microtubers (potato microtubers [4]; − light, 2 wk): 5/5; number of tubers with multiple sprouts (potato minitubers [5]; Minituber (CS2W), 4 wk): (2); Mean fresh weight (potato minitubers [6]): 11.13 g·days |
| CCBr [Bromoethane] | 2/6 | 4/6 | 4/6 | 6/6 | 0 | 0 | 0 | 2/6 | 3/6 | 4/6 | 6/6 | (4) | 6/6 | (4) | 0 | 0 | 0 | 0 | 2.0 | 1.8 ± 0.20 | Mean No. sprouts ± SE (potato microtubers [1]; Bromoethane (0.2 ml l^−1)): 1.0 ± 0; No. sprouted microtubers (potato microtubers [1]; Bromoethane (0.2 ml l^−1)): 1/7; number of tubers with multiple sprouts (potato minitubers [5]; Minituber (CS8W), 2 wk): (1); number of tubers with multiple sprouts (potato minitubers [5]; Minituber (CS8W), 2 wk, listed as BE): 1/6; Mean number sprouts at planting ± SE (potato minitubers [6]; listed as BE): 1.8±0.2; Mean fresh weight (potato minitubers [6]): 14.01 g·days |
| CCCCCC/C=C\CCCCC/C=C/C(=O)N[C@H]1[C@H](O[C@H]2[C@H](O)[C@@H](NC(C)=O)[C@H](O[C@H]3[C@H](O)[C@@H](NC(C)=O)[C@H](O[C@H]4[C@H](O)[C@@H](NC(C)=O)[C@H](O[C@H]5[C@H](O)[C@@H](NC(C)=O)C(O)O[C@@H]5COS(=O)(=O)O)O[C@@H]4CO)O[C@@H]3CO)O[C@@H]2CO)O[C@H](CO)[C@@H](O)[C@@H]1O (stereo partly drawn) [Nod Rm-V(C16:2, S)] | – | – | – | – | – | – | – | – | – | – | – | – | – | – | – | – | – | – | – | – | Percent germination ([7]; 10^−1 dilution): 26.6 ab Percent; Percent germination ([7]; 10^−2 dilution): 26.6 ab Percent; Percent germination ([7]; 10^−3 dilution): 36.6 a Percent |
